Like-named read-outs stand apart in the source and are kept apart here.
Target: T1, Androgen Receptor (Homo sapiens, UniProt P10275)
T1 construct: endogenous in cells; host or cells: VCaP cells
T1 sequence (P10275 1-920): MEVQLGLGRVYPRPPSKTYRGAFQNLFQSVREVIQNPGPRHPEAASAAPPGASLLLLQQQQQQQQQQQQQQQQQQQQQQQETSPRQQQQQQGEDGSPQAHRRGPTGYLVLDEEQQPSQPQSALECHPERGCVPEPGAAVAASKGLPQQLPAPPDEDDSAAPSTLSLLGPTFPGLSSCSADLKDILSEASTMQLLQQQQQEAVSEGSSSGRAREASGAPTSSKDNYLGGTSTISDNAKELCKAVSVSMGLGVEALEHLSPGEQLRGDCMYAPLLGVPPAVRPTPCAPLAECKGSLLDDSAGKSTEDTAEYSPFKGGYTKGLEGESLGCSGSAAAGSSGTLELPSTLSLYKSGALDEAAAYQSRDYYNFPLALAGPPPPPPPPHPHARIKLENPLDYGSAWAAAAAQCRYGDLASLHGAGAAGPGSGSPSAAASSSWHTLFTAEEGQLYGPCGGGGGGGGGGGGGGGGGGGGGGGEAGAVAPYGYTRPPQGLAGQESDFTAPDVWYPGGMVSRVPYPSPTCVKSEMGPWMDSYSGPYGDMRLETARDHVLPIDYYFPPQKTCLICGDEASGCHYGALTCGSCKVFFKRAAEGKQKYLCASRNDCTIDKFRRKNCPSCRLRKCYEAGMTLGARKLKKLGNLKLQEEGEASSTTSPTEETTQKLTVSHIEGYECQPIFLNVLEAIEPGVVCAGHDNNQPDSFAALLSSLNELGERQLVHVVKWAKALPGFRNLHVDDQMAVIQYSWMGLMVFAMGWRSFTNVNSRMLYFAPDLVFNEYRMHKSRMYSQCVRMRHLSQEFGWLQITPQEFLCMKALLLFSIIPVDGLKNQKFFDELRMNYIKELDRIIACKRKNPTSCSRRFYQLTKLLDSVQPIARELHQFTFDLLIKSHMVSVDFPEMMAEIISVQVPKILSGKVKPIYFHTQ
Experiment: Androgen Receptor ELISA assay (PathScan AR ELISA) in VCaP cells: AR degradation, Dmax and DC50
Format: cell-based
Summary of the method: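 After 24 h exposure of VCaP cells (charcoal-stripped serum, 0.1 nM R1881 agonist, 0.1% DMSO) to seven half-log compound concentrations, residual AR in lysates was measured by PathScan ELISA (TMB absorbance, 450 nm). Cells were plated at 30,000/well and grown at least 3 days beforehand.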

[1] = VCaP cells; Table 36; read-out: VCaP DC50
[2] = VCaP, VCaP cells; Table 36; read-out: VCaP Dmax (%)
[3] = VCaP, read-out: VCaP Dmax (%), VCaP cells; Table 36

Row | SMILES | DC50 [1] | Dmax (VCaP, read-out: VCaP Dmax (%)) | other results
1 | Cc1ncsc1-c1ccc([C@@H](NC(=O)[C@@H]2C[C@@H](O)CN2C(=O)C(NC(=O)COCCN2CCN(c3ccc(C(=O)N[C@H]4C(C)(C)[C@H](Oc5ccc(C#N)c(C(F)(F)F)c5)C4(C)C)cn3)CC2)C(C)(C)C)C2COC2)cc1 (stereo partly drawn) [Example 705, N-((1r,3r)-3-(4-cyano-3-(trifluoromethyl)phenoxy)-2,2,4,4-tetramethylcyclobutyl)-6-(4-(2-(2-(((S)-1-((2S,4R)-4-hydroxy-2-(((S)-(4-(4-methylthiazol-5-yl)phenyl)(oxetan-3-yl)methyl)carbamoyl)pyrrolidin-1-yl)-3,3-dimethyl-1-oxobutan-2-yl)amino)-2-oxoethoxy)ethyl)pipera-zin-1-yl)nicotinamide] | < 0.05 µM | – | Dmax [2]: 26 to 50%
2 | Cc1ncsc1-c1ccc([C@H](C)NC(=O)[C@@H]2C[C@@H](O)CN2C(=O)[C@@H](NC(=O)CN2CCC(O[C@H]3C[C@H](Nc4ccc(C(=O)N[C@H]5C(C)(C)[C@H](Oc6ccc(C#N)c(Cl)c6)C5(C)C)cc4F)C3)CC2)C(C)(C)C)cc1 [Example 706, (2S,4R)-1-((S)-2-(2-(4-((1R,3S)-3-((4-(((1r,3R)-3-(3-chloro-4-cyanophenoxy)-2,2,4,4-tetramethylcyclobutyl)carbamoyl)-2-fluorophenyl)amino)cyclobutoxy)piperidin-1-yl)acetamido)-3,3-dimethylbutanoyl)-4-hydroxy-N-((S)-1-(4-(4-methylthiazol-5-yl)phenyl)ethyl)pyrrolidine-2-carboxamide] | < 0.05 µM | – | Dmax [3]: > 71%
3 | CO[C@@H]1C[C@@H](C(=O)N[C@@H](C)c2ccc(-c3scnc3C)cc2)N(C(=O)[C@@H](NC(=O)CN2CCN(CCCc3ccc(C(=O)N[C@H]4C(C)(C)[C@H](Oc5ccc(C#N)c(C(F)(F)F)c5)C4(C)C)cc3)CC2)C(C)(C)C)C1 [Example 708, (2S,4R)-1-((S)-2-(2-(4-(3-(4-(((1r,3r)-3-(4-cyano-3-(trifluoromethyl)phenoxy)-2,2,4,4-tetramethylcyclobutyl)carbamoyl)phenyl)propyl)piperazin-1-yl)acetamido)-3,3-dimethylbutanoyl)-4-methoxy-N-((S)-1-(4-(4-methylthiazol-5-yl)phenyl)ethyl)pyrrolidine-2-carboxamide] | > 0.501 µM | < 25% | –
4 | CO[C@@H]1C[C@@H](C(=O)N(C)Cc2ccc(-c3scnc3C)cc2)N(C(=O)[C@@H](N(C)C(=O)COCCCCCN(C)c2ccc(C(=O)N(C)[C@H]3C(C)(C)[C@H](Oc4ccc(C#N)c(C(F)(F)F)c4)C3(C)C)nc2)C(C)(C)C)C1 [Example 709, N-((1r,3r)-3-(4-cyano-3-(trifluoromethyl)phenoxy)-2,2,4,4-tetramethylcyclobutyl)-5-((5-(2-(((S)-1-((2S,4R)-4-methoxy-2-(methyl(4-(4-methylthiazol-5-yl)benzyl)carbamoyl)pyrrolidin-1-yl)-3,3-dimethyl-1-oxobutan-2-yl)(methyl)amino)-2-oxoethoxy)pentyl)(meth-yl)amino)-N-methylpicolinamide] | > 0.501 µM | – | Dmax [2]: < 25%
5 | Cc1ncsc1-c1ccc(CNC(=O)[C@@H]2C[C@@H](O)CN2C(=O)[C@@H](NC(=O)CN2CCN(CCCc3cn(-c4ccc(C(=O)N[C@H]5C(C)(C)[C@H](Oc6ccc(C#N)c(C(F)(F)F)c6)C5(C)C)cc4)nn3)CC2)C(C)(C)C)cc1 [Example 710, (2S,4R)-1-((S)-2-(2-(4-(3-(1-(4-(((1r,3r)-3-(4-cyano-3-(trifluoromethyl)phenoxy)-2,2,4,4-tetramethylcyclobutyl)carbamoyl)phenyl)-1H-1,2,3-triazol-4-yl)propyl)piperazin-1-yl)acetamido)-3,3-dimethylbutanoyl)-4-hydroxy-N-(4-(4-methylthiazol-5-yl)benzyl)pyrrolidine-2-carboxamide] | < 0.05 µM | 51 to 70% | –
6 | Cc1ncsc1-c1ccc(CNC(=O)[C@@H]2C[C@@H](O)CN2C(=O)C(NC(=O)COCCN2CCN(c3ccc(C(=O)N[C@H]4C(C)(C)[C@H](Oc5ccc(C#N)c(C(F)(F)F)c5)C4(C)C)cn3)C(=O)C2)C(C)(C)C)cc1 (stereo partly drawn) [Example 711, N-((1r,3r)-3-(4-cyano-3-(trifluoromethyl)phenoxy)-2,2,4,4-tetramethylcyclobutyl)-6-(4-(2-(2-(((S)-1-((2S,4R)-4-hydroxy-2-((4-(4-methylthiazol-5-yl)benzyl)carbamoyl)pyrrolidin-1-yl)-3,3-dimethyl-1-oxobutan-2-yl)amino)-2-oxoethoxy)ethyl)-2-oxopiperazin-1-yl)nicotinamide] | < 0.05 µM | – | VCaP Dmax (%) (VCaP cells; Table 36): + (Dmax ≤ 25%)
7 | Cc1ncsc1-c1ccc([C@H](NC(=O)[C@@H]2C[C@@H](O)CN2C(=O)[C@@H](NC(=O)CN2CCN(CCCc3ccc(C(=O)N[C@H]4C(C)(C)[C@H](Oc5ccc(C#N)c(C(F)(F)F)c5)C4(C)C)cc3)CC2)C(C)(C)C)C2COC2)cc1 [Example 712, (2S,4R)-1-((S)-2-(2-(4-(3-(4-(((1r,3r)-3-(4-cyano-3-(trifluoromethyl)phenoxy)-2,2,4,4-tetramethylcyclobutyl)carbamoyl)phenyl)propy)piperazin-1-yl)acetamido)-3,3-dimethylbutanoyl)-4-hydroxy-N-((R)-(4-(4-methylthiazol-5-yl)phenyl)(oxetan-3-yl)methyl)pyrrolidine-2-carboxamide] | > 0.501 µM | < 25% | –
8 | Cc1ncsc1-c1ccc([C@@H](NC(=O)[C@@H]2C[C@@H](O)CN2C(=O)[C@@H](NC(=O)CN2CCN(CCCc3ccc(C(=O)N[C@H]4C(C)(C)[C@H](Oc5ccc(C#N)c(C(F)(F)F)c5)C4(C)C)cc3)CC2)C(C)(C)C)C2COC2)cc1 [Example 713, (2S,4R)-1-((S)-2-(2-(4-(3-(4-(((1r,3r)-3-(4-cyano-3-(trifluoromethyl)phenoxy)-2,2,4,4-tetramethylcyclobutyl)carbamoyl)phenyl)propyl)piperazin-1-yl)acetamido)-3,3-dimethylbutanoyl)-4-hydroxy-N-((S)-(4-(4-methylthiazol-5-yl)phenyl)(oxetan-3-yl)methyl)pyrrolidine-2-carboxamide] | < 0.05 µM | < 25% | –
9 | Cc1ncsc1-c1ccc([C@H](C)NC(=O)[C@@H]2C[C@@H](O)CN2C(=O)[C@@H](NC(=O)CCCN(C)[C@H](C(=O)N[C@H](C(=O)N(C)CCOc2ccc(N3C(=S)N(c4ccc(C#N)c(C(F)(F)F)c4)C(=O)C3(C)C)cc2)C(C)C)C(C)C)C(C)(C)C)cc1 [Example 714, (2S,4R)-1-((5S,8S,15S)-15-(tert-butyl)-1-(4-(3-(4-cyano-3-(trifluoromethyl)phenyl)-5,5-dimethyl-4-oxo-2-thioxoimidazolidin-1-yl)phenoxy)-5,8-diisopropyl-3,9-dimethyl-4,7,13-trioxo-3,6,9,14-tetraazahexadecan-16-oyl)-4-hydroxy-N-((S)-1-(4-(4-methylthiazol-5-yl)phenyl)ethyl)pyrrolidine-2-carboxamide] | – | < 25% | DC50 (read-out: VCaP DC50; VCaP cells; Table 36): > 0.501 µM
10 | Cc1ncsc1-c1ccc([C@H](C)NC(=O)[C@@H]2C[C@@H](O)CN2C(=O)[C@@H](NC(=O)CN2CCN(CCCN3CCN(c4ccc(C(=O)N[C@H]5C(C)(C)[C@H](Oc6ccc(C#N)c(C#N)c6)C5(C)C)cn4)CC3)CC2)C(C)(C)C)cc1 [Example 715, N-((1r,3r)-3-(3,4-dicyanophenoxy)-2,2,4,4-tetramethylcyclobutyl)-6-(4-(3-(4-(2-(((S)-1-((2S,4R)-4-hydroxy-2-(((S)-1-(4-(4-methylthiazol-5-yl)phenyl)ethyl)carbam-oyl)pyrrolidin-1-yl)-3,3-dimethyl-1-oxobutan-2-yl)amino)-2-oxoethyl)piperazin-1-yl)propyl)piperazin-1-yl)nicotinamide] | < 0.05 µM | – | Dmax [3]: 51 to 70%
11 | Cc1nc(O[C@H]2C(C)(C)[C@H](NC(=O)c3ccc(N4CCN(CCCN5CCN(CC(=O)O[C@H](C(=O)N6C[C@H](O)C[C@H]6C(=O)N[C@@H](C)c6ccc(-c7scnc7C)cc6)C(C)(C)C)CC5)CC4)nc3)C2(C)C)ccc1C#N [Example 716, N-((1r,3r)-3-((5-cyano-6-methylpyridin-2-yl)oxy)-2,2,4,4-tetramethylcyclobutyl)-6-(4-(3-(4-(2-(((S)-1-((2S,4R)-4-hydroxy-2-(((S)-1-(4-(4-methylthiazol-5-yl)phenyl)ethyl)carbam-oyl)pyrrolidin-1-yl)-3,3-dimethyl-1-oxobutan-2-yl)amino)-2-oxoethyl)piperazin-1-yl)propyl)piperazin-1-yl)nicotinamdie] | > 0.501 µM | – | Dmax [2]: 26 to 50%

From patent US11427548B2 (Arvinas Operations, Inc., priority 2015, dated 2022)
